Square brackets hold non-standard residues; d marks the D form. Peptide text beside a SMILES is read from it. * marks the point of attachment. Propanoyl(3-(3-pyridyl)) = O=C(CCc1cccnc1)*; Arg(Me) = CNC(=N)NCCC[C@H](N)C(=O)O; d4Pal = N[C@H](Cc1ccncc1)C(=O)O; azaGly = NNC(=O)O

Test [1] deals with T1, hOT7T175 (Homo sapiens, UniProt Q969F8, L364H). Description: Intracellular Ca ion level-increasing activity using FLIPR in hOT7T175/CHO. Type of test: cell-based. Further details: expressed in transfected cells; host or cells: CHO/dhfr- cells, obtained from ATCC. The following applies: relative, Metastin (1-54) = 1.
For test [2], the target named is T1, hOT7T175. The test can be described thus: hOT7T175 receptor binding activity: binding inhibition of Cy-5-labeled metastin (40-54) on hOT7T175-expressed CHO cells. More on the design: expressed in transfected cells; host or cells: CHO cells.

T1 sequence (Q969F8 whole entry L364H): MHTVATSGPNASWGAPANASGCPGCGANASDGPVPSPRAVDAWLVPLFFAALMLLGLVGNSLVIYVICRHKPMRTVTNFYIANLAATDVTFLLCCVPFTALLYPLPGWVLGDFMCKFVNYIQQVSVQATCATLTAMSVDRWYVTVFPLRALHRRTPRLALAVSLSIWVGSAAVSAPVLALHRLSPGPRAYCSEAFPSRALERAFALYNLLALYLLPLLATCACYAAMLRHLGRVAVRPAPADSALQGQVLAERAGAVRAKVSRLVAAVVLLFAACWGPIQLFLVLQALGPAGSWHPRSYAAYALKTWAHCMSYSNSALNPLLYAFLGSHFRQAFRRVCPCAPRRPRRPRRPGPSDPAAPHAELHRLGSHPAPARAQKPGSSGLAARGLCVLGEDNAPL

`CNC(=N)NCCC[C@H](NC(=O)[C@H](CC(C)C)NC(=O)NNC(=O)[C@H](Cc1ccccc1)NC(=O)[C@H](CO)NC(=O)[C@H](CC(N)=O)NC(=O)[C@@H](Cc1ccncc1)NC(=O)[C@H](N)Cc1ccc(O)cc1)C(=O)N[C@@H](Cc1ccccc1)C(N)=O` [Compound No. 305, D-Tyr-D-Pya(4)-Asn-Ser-Phe-AzaGly-Leu-Arg(Me)-Phe-NH2] (H-[dY][d4Pal]NSF[azaGly]L[Arg(Me)]F-NH2): the “Specific Activity (intracellular Ca ion level-increasing activity)” value at hOT7T175 [1] is recorded as 5.
Take `CNC(=N)NCCC[C@H](NC(=O)[C@H](CC(C)C)NC(=O)NNC(=O)[C@H](Cc1ccccc1)NC(=O)[C@H](CO)NC(=O)[C@H](CC(N)=O)NC(=O)CCc1cccnc1)C(=O)N[C@@H](Cc1ccccc1)C(N)=O` [Compound No. 322, 3-Pyridylpropionyl-Asn-Ser-Phe-AzaGly-Leu-Arg(Me)-Phe-NH2] ({Propanoyl(3-(3-pyridyl))}-NSF[azaGly]L[Arg(Me)]F-NH2): on hOT7T175 [1], the “Specific Activity (intracellular Ca ion level-increasing activity)” value was 1. Moreover, the IC50 – broadly, the concentration that gives 50% inhibition – on hOT7T175 [2] was 54 nM.

Values taken from patent publication US8361968B2 (Takeda Pharmaceutical Company Limited, priority 2002, dated 2013).
